Results reported in PubChem BioAssay (NCI).
Values joined by “and” are separate entries in the source; they are usually repeats but may differ in a detail not shown here. Equal values may be shown once.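 Cultured in 96-well plates, cells were exposed to test compound for 48 hours across five concentrations. At the GI50, growth is halved. The concentration for full growth arrest is given as TGI.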

Key:
Experiment in all cases: inhibition of tumour cell growth, NCI panel, 48 h
SR leukemia = test system: SR leukemia
SF-268 CNS = test system: SF-268 CNS
HS 578T breast = test system: HS 578T breast
U251 CNS = test system: U251 CNS
M14 melanoma = test system: M14 melanoma
HOP-92 NSCLC = test system: HOP-92 NSCLC
EKVX NSCLC = test system: EKVX NSCLC
SW-620 colon = test system: SW-620 colon
DMS 114 small cell lung = test system: DMS 114 small cell lung
DLD-1 colon = test system: DLD-1 colon

S=c1ssnc1-c1cc2ccccc2o1
GI50 (SR leukemia): 3.04 µM
TGI (SR leukemia): 18.3 µM
GI50 (SF-268 CNS): 13.9 µM
TGI (SF-268 CNS): 35 µM
GI50 (HS 578T breast): 18.5 µM
TGI (HS 578T breast): 80.7 µM
GI50 (U251 CNS): 15.1 µM
TGI (U251 CNS): 28.4 µM
GI50 (M14 melanoma): 16.5 µM
TGI (M14 melanoma): 60.7 µM
GI50 (HOP-92 NSCLC): 18.5 µM
TGI (HOP-92 NSCLC): 43.2 µM
GI50 (EKVX NSCLC): 11.8 µM
TGI (EKVX NSCLC): 30.8 µM
GI50 (SW-620 colon): 12.7 µM
TGI (SW-620 colon): 27.6 µM

Cc1nc2c(C)ccc([N+](=O)[O-])c2c(NCCCN(C)C)c1C
TGI (SR leukemia): > 100 µM
TGI (SF-268 CNS): > 100 µM
TGI (HS 578T breast): > 100 µM
TGI (U251 CNS): > 100 µM
TGI (M14 melanoma): 37.6 µM
TGI (HOP-92 NSCLC): > 100 µM
TGI (EKVX NSCLC): > 100 µM
TGI (SW-620 colon): > 53 µM

CC(C)=C[C@@H]1C[C@H](C)[C@H]2CC[C@H](C)c3c(O)c(OC4OC(C)C(O)C(O)C4O)c(C)c1c32 (some centres not stated)
GI50 (SR leukemia): 2.59 µM
TGI (SR leukemia): 10.4 µM
GI50 (SF-268 CNS): 16 µM
TGI (SF-268 CNS): 31.3 µM
GI50 (HS 578T breast): 11.6 µM
TGI (HS 578T breast): 27.5 µM
GI50 (U251 CNS): 14.7 µM
TGI (U251 CNS): 27.8 µM
GI50 (M14 melanoma): 11.5 µM
TGI (M14 melanoma): 24.9 µM
GI50 (HOP-92 NSCLC): 14.8 µM
TGI (HOP-92 NSCLC): 28.5 µM
GI50 (EKVX NSCLC): 19.3 µM
TGI (EKVX NSCLC): 34.2 µM
GI50 (SW-620 colon): 4.66 µM
TGI (SW-620 colon): 16.3 µM

CCSC[C@@H]1C[C@](O)(c2ccccc2)[C@@H](c2ccccc2)O1
GI50 (SR leukemia): < 0.136 µM
TGI (SR leukemia): 9.3 µM
GI50 (SF-268 CNS): > 78.6 µM
TGI (SF-268 CNS): > 100 µM
GI50 (HS 578T breast): 50.9 µM
TGI (HS 578T breast): > 97.1 µM
GI50 (U251 CNS): 99.1 µM
TGI (U251 CNS): > 100 µM
GI50 (M14 melanoma): > 90.1 µM
TGI (M14 melanoma): > 100 µM
GI50 (HOP-92 NSCLC): 65.5 µM
TGI (HOP-92 NSCLC): > 100 µM
GI50 (EKVX NSCLC): 59.2 µM
TGI (EKVX NSCLC): > 100 µM
GI50 (SW-620 colon): > 100 µM
TGI (SW-620 colon): > 100 µM

C=CCNC(=S)NNC(=O)c1c(C)nc2sccn12
TGI (SR leukemia): > 100 µM
TGI (SF-268 CNS): > 100 µM
TGI (U251 CNS): > 100 µM
TGI (DMS 114 small cell lung): > 100 µM
TGI (DLD-1 colon): > 100 µM
TGI (HOP-92 NSCLC): > 100 µM
TGI (EKVX NSCLC): > 100 µM
TGI (SW-620 colon): > 100 µM

Cc1cc(C)c2nc3c(c(C(O)C4CCCCN4)c2c1)CC/C3=C\c1ccc(Cl)cc1 (configuration not stated)
TGI (SR leukemia): > 100 µM
TGI (SF-268 CNS): > 100 µM
TGI (HS 578T breast): > 100 µM
TGI (U251 CNS): > 100 µM
TGI (M14 melanoma): > 100 µM
TGI (HOP-92 NSCLC): > 100 µM
TGI (EKVX NSCLC): > 100 µM
TGI (SW-620 colon): > 100 µM

COc1cc2c(oc(=O)c3c4occc4cc(OC)c23)c2cccc(O)c12
TGI (SF-268 CNS): > 100 µM
TGI (U251 CNS): > 100 µM
TGI (M14 melanoma): > 100 µM
TGI (DMS 114 small cell lung): > 100 µM
TGI (DLD-1 colon): > 100 µM
TGI (HOP-92 NSCLC): > 100 µM
TGI (EKVX NSCLC): > 100 µM
TGI (SW-620 colon): > 100 µM

COc1ccc(/C=C/C(=N\NC(=O)c2ccccc2)c2sc(Nc3ccc([N+](=O)[O-])cc3)nc2C)cc1OC
TGI (SR leukemia): > 100 µM
TGI (SF-268 CNS): 33.5 µM
TGI (U251 CNS): 18.6 µM
TGI (M14 melanoma): 28.9 µM
TGI (DMS 114 small cell lung): 62.7 µM
TGI (DLD-1 colon): 28.8 µM
TGI (HOP-92 NSCLC): 6.41 µM
TGI (EKVX NSCLC): 91 µM
TGI (SW-620 colon): > 100 µM

CC(C)c1ccc(O)c(Cc2cc(C(C)C)cc(Cc3cc(C(C)C)ccc3O)c2O)c1
TGI (SR leukemia): 4.45 µM
TGI (SF-268 CNS): 4.01 µM
TGI (U251 CNS): 3.17 µM
TGI (M14 melanoma): 3.23 µM
TGI (DMS 114 small cell lung): 3.03 µM
TGI (DLD-1 colon): 4.15 µM
TGI (HOP-92 NSCLC): 3.33 µM
TGI (EKVX NSCLC): 8.95 µM
TGI (SW-620 colon): 3.09 µM

FC(F)(F)c1ccccc1C1SCc2nc3ccccc3n21 (configuration not stated)
TGI (SR leukemia): > 100 µM
TGI (SF-268 CNS): > 100 µM
TGI (U251 CNS): > 100 µM
TGI (DMS 114 small cell lung): > 100 µM
TGI (DLD-1 colon): > 100 µM
TGI (HOP-92 NSCLC): 53.3 µM
TGI (EKVX NSCLC): > 100 µM
TGI (SW-620 colon): > 100 µM

CCN(CC)c1ccc(/C=N/NC(=O)Cc2ccc(Nc3ccnc(C(F)(F)F)c3)cc2)c(O)c1
GI50 (SR leukemia): 0.285 µM
TGI (SR leukemia): > 19.9 µM
GI50 (SF-268 CNS): 0.455 µM
TGI (SF-268 CNS): > 100 µM
GI50 (HS 578T breast): 1.95 µM
TGI (HS 578T breast): > 48.9 µM
GI50 (U251 CNS): 0.586 µM
TGI (U251 CNS): > 100 µM
GI50 (M14 melanoma): 0.637 µM
TGI (M14 melanoma): 5.93 µM
GI50 (HOP-92 NSCLC): 4.06 µM
TGI (HOP-92 NSCLC): > 100 µM
GI50 (EKVX NSCLC): 0.98 µM
TGI (EKVX NSCLC): > 77 µM
GI50 (SW-620 colon): 0.729 µM
TGI (SW-620 colon): > 100 µM

Cn1cc(-c2cc(-c3cn(C)c4ccccc34)[nH]n2)c2ccccc21
GI50 (SR leukemia): 3.46 µM
TGI (SR leukemia): 14.8 µM
GI50 (SF-268 CNS): 16 µM
TGI (SF-268 CNS): > 100 µM
GI50 (HS 578T breast): 18.5 µM
TGI (HS 578T breast): > 100 µM
GI50 (U251 CNS): 12.9 µM
TGI (U251 CNS): 46.9 µM
GI50 (M14 melanoma): > 100 µM
TGI (M14 melanoma): > 100 µM
GI50 (HOP-92 NSCLC): 2.06 µM
TGI (HOP-92 NSCLC): 9.57 µM
GI50 (EKVX NSCLC): 27.2 µM
TGI (EKVX NSCLC): > 100 µM
GI50 (SW-620 colon): > 100 µM
TGI (SW-620 colon): > 100 µM

CCOc1ccc(NC(=O)CC2SC(=Nc3ccc(C)cc3)NC2=O)cc1 (configuration not stated)
TGI (SR leukemia): > 100 µM
TGI (SF-268 CNS): > 100 µM
TGI (U251 CNS): > 100 µM
TGI (M14 melanoma): > 100 µM
TGI (DMS 114 small cell lung): > 100 µM
TGI (DLD-1 colon): > 100 µM
TGI (EKVX NSCLC): > 100 µM
TGI (SW-620 colon): > 100 µM

NC(=NCCCCCCN=C(N)/N=C(\N)Nc1ccc(Cl)cc1)/N=C(\N)Nc1ccc(Cl)cc1
GI50 (SR leukemia): 0.945 µM
TGI (SR leukemia): 2.37 µM
GI50 (SF-268 CNS): 1.48 µM
TGI (SF-268 CNS): 4.46 µM
GI50 (HS 578T breast): 1.43 µM
TGI (HS 578T breast): 4.73 µM
GI50 (U251 CNS): 1.07 µM
TGI (U251 CNS): 2.77 µM
GI50 (M14 melanoma): 1.71 µM
TGI (M14 melanoma): 6 µM
GI50 (HOP-92 NSCLC): 1.41 µM
TGI (HOP-92 NSCLC): 3.8 µM
GI50 (EKVX NSCLC): 1.53 µM
TGI (EKVX NSCLC): 8.3 µM
GI50 (SW-620 colon): 1.54 µM
TGI (SW-620 colon): 5.15 µM

O=C(O)CNc1ccc2c(c1)Cc1cc(Br)ccc1-2
TGI (SR leukemia): 1.31 µM
TGI (SF-268 CNS): > 100 µM
TGI (HS 578T breast): 36.4 µM
TGI (U251 CNS): 97 µM
TGI (M14 melanoma): > 77.1 µM
TGI (HOP-92 NSCLC): > 90.7 µM
TGI (EKVX NSCLC): 49.7 µM
TGI (SW-620 colon): > 96.8 µM

COC(=O)[C@@]12OC[C@]34[C@H]([C@@H](O)[C@@H]1O)[C@@]1(C)CC(=O)C(O)=C(C)[C@@H]1C[C@H]3OC(=O)[C@H](OC(=O)/C=C(\C)C(C)C)[C@@H]24
TGI (SR leukemia): 0.0369 µM
GI50 (HS 578T breast): 0.02 µM
TGI (HS 578T breast): 0.0209 µM and 0.0273 µM
TGI (U251 CNS): 0.0206 µM and 0.0657 µM
TGI (M14 melanoma): 0.0109 µM
GI50 (DMS 114 small cell lung): 0.0354 nM
TGI (DMS 114 small cell lung): 0.000286 µM
TGI (HOP-92 NSCLC): 0.0378 µM and 0.0921 µM
TGI (EKVX NSCLC): 0.0517 µM and 0.0283 µM and 0.0316 µM

Cc1cc(NCCCCCCCNc2cc(C)nc3cc(N)ccc23)c2ccc(N)cc2n1
TGI (SR leukemia): 66.8 µM
TGI (SF-268 CNS): > 100 µM
TGI (U251 CNS): > 100 µM
TGI (M14 melanoma): > 100 µM
TGI (DMS 114 small cell lung): 32 µM
TGI (DLD-1 colon): > 100 µM
TGI (EKVX NSCLC): > 100 µM

Nc1nc(SCc2ccccc2CCl)c2[nH]cnc2n1
GI50 (SR leukemia): 24.8 µM
TGI (SR leukemia): > 100 µM
GI50 (SF-268 CNS): 12.6 µM
TGI (SF-268 CNS): 25.6 µM
GI50 (HS 578T breast): 18.3 µM
TGI (HS 578T breast): 97.2 µM
GI50 (U251 CNS): 13.1 µM
TGI (U251 CNS): 27.3 µM
GI50 (M14 melanoma): 17.8 µM
TGI (M14 melanoma): 52.8 µM
GI50 (HOP-92 NSCLC): 20 µM
TGI (HOP-92 NSCLC): 67.8 µM
GI50 (EKVX NSCLC): 12.9 µM
TGI (EKVX NSCLC): 25.9 µM
GI50 (SW-620 colon): 14.8 µM
TGI (SW-620 colon): 29.2 µM
